The test concerns the target T1, RIPK1 (Homo sapiens, UniProt Q13546).
T1 construct: recombinant GST-RIPK1 kinase domain (residues 1-327) enzyme produced from baculovirus-transfected Sf21 cells; host or cells: baculovirus-transfected Sf21 insect cells
T1 sequence (Q13546 1-327): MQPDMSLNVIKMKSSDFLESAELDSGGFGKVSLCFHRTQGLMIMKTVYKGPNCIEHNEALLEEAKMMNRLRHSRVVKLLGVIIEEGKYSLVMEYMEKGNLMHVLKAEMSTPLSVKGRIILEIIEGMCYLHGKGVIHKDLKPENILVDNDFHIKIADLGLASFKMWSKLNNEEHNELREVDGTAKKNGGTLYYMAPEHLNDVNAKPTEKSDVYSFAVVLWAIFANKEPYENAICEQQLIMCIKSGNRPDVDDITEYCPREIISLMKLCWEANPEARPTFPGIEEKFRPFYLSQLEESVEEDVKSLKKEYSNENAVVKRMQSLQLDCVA
Description: RIPK1-ADP-Glo enzymatic assay. Conditions: ADP-Glo luminescent ADP detection; 25 nM GST-RIPK1 kinase domain (residues 1-327), 300 μM ATP, dephosphorylated-MBP substrate; 30 min pre-incubation, 150 min reaction. Format: biochemical. The procedure: RIPK1-ADP-Glo Enzymatic Assay
The enzymatic activity of RIPK1 is measured using an assay derived from ADP-Glo kit (Promega™), which provides a luminescent-based ADP detection system. Specifically, the ADP generated by RIPK1 kinase is proportionally detected as luminescent signals in a homogenous fashion. In this context, the assessment of the inhibitory effect of small molecules (EC50) is measured by the effectiveness of the compounds to inhibit the ATP to ADP conversion by RIPK1.
In this assay, the potency (EC50) of each compound was determined from a ten-point (1:3 serial dilution; top compound concentration of 100000 nM) titration curve using the following outlined procedure. To each well of a white ProxiPlus 384 well-plate, 30 nL of compound (1% DMSO in final assay volume of 3 μL) was dispensed, followed by the addition of 2 μL of 1×assay buffer (25 mM Hepes 7.3, 20 mM MgCl2, 50 mM NaCl, 1 mM DTT, 0.005% Tween20, and 0.02% BSA) containing 37.5 nM of GST-RIPK1 (recombinant GST-RIPK1 kinase domain (residues 1-327) enzyme produced from baculovirus-transfected Sf21 cells: MW=62 kDa). Plates were placed in an ambient temperature humidified chamber for a 30 minutes pre-incubation with compound. Subsequently, each reaction was initiated by the addition of 1 μL 1×assay buffer containing 900 μM ATP and […] dephosphorylated-MBP substrate. The final reaction in each well of 3 μL consists of 25 nM of GST-RIPK1, 300 μM ATP, and 3 μM dephosphorylated-MBP. Kinase reactions were allowed to proceed for 150 minutes prior to adding ADP-Glo reagents per Promega's outlined kit protocol. Dose-response curves were generated by plotting percent effect (% product conversion; Y-axis) vs. Log10 compound concentrations (X-axis). EC50 values were calculated using a non-linear regression, four-parameters sigmoidal dose-response model.

Where a name gives a salt, the structure may show the parent alone.

For orientation: EC50 means the concentration at which the effect is half-maximal. High values mean weaker potency, low ones greater potency. For the compound `CC1(Oc2ccccc2)CN(C(=O)N2N=CCC2c2cc(F)cc(F)c2)C1` (racemic) [Example 1.2, (R and S)-(5-(3,5-difluorophenyl)-4,5-dihydro-1H-pyrazol-1-yl)(3-methyl-3-phenoxyazetidin-1-yl)methanone, TFA salt], the half-maximal effective concentration (EC50) was 0.0097 µM.

Consider `N#Cc1cc(OC2CN(C(=O)N3N=CCC3c3cc(F)cc(F)c3)C2)ncn1` (racemic) [Example 1.5, (R and S)-6-((1-(5-(3,5-difluorophenyl)-4,5-dihydro-1H-pyrazole-1-carbonyl)azetidin-3-yl)oxy)pyrimidine-4-carbonitrile, TFA salt], for which the EC50 stood at 0.14 µM.

`C[C@@H]1[C@H](Oc2ccccc2)CN1C(=O)N1N=CC[C@H]1c1cc(F)cc(F)c1` (racemic) [Example 1.11, ((S)-5-(3,5-difluorophenyl)-4,5-dihydro-1H-pyrazol-1-yl)((2R,3R and 2S,3S)-2-methyl-3-phenoxyazetidin-1-yl)methanone, TFA salt] showed an EC50 of 0.0118 µM.

In turn, `O=C(N1CCC1c1ccccc1F)N1N=CC[C@H]1c1cc(F)cc(F)c1` (mixture of isomers) [Example 1.21, ((S)-5-(3,5-difluorophenyl)-4,5-dihydro-1H-pyrazol-1-yl)((R and S)-2-(2-fluorophenyl)azetidin-1-yl)methanone] showed an EC50 of 0.0276 µM.

`O=C(N1CCC1Cc1ccccc1)N1N=CC[C@H]1c1cc(F)cc(F)c1` (mixture of isomers) [Example 1.22, ((S)-2-benzylazetidin-1-yl)((R and S)-5-(3,5-difluorophenyl)-4,5-dihydro-1H-pyrazol-1-yl)methanone] displayed an EC50 of 0.0736 µM.

In turn, `COC(=O)C1CC12CN(C(=O)N1N=CC[C@H]1c1cc(F)cc(F)c1)C2` (mixture of isomers) [Example 1.47, methyl (R and S)-5-((S)-5-(3,5-difluorophenyl)-4,5-dihydro-1H-pyrazole-1-carbonyl)-5-azaspiro[2.3]hexane-1-carboxylate] yielded an EC50 of 0.195 µM.

Compound `N#Cc1cc(OC2CN(C(=O)N3N=CC[C@H]3c3cc(F)cc(F)c3)C2)ncn1` (single isomer, unassigned) [Example 1.6] registered an EC50 of 0.083 µM.

`C[C@H]1[C@H](Oc2ccccc2)CN1C(=O)N1N=CC[C@H]1c1cc(F)cc(F)c1` (single isomer, unassigned) [Example 1.9, ((S)-5-(3,5-difluorophenyl)-4,5-dihydro-1H-pyrazol-1-yl)((2S,3R or 2R,3S)-2-methyl-3-phenoxyazetidin-1-yl)methanone, TFA salt] showed an EC50 of 0.104 µM.

In the case of `C[C@@H]1[C@@H](Oc2ccccc2)CN1C(=O)N1N=CC[C@H]1c1cc(F)cc(F)c1` (single isomer, unassigned) [Example 1.10, ((S)-5-(3,5-difluorophenyl)-4,5-dihydro-1H-pyrazol-1-yl)((2R,3S or 2S,3R)-2-methyl-3-phenoxyazetidin-1-yl)methanone, TFA salt], it took 0.0105 µM to reach a half-maximal effect (EC50).

The compound `C[C@@H]1[C@H](Oc2ccccc2)CN1C(=O)N1N=CC[C@H]1c1cc(F)cc(F)c1` (single isomer, unassigned) [Example 1.12, ((S)-5-(3,5-difluorophenyl)-4,5-dihydro-1H-pyrazol-1-yl)((2R,3R or 2S,3S)-2-methyl-3-phenoxyazetidin-1-yl)methanone, TFA salt] gave an EC50 of 0.0088 µM.

The compound `C[C@H]1[C@@H](Oc2ccccc2)CN1C(=O)N1N=CC[C@H]1c1cc(F)cc(F)c1` (single isomer, unassigned) [Example 1.13, ((S)-5-(3,5-difluorophenyl)-4,5-dihydro-1H-pyrazol-1-yl)((2S,3S or 2R,3R)-2-methyl-3-phenoxyazetidin-1-yl)methanone, TFA salt] came in with an EC50 of 0.0076 µM.

As to `O=C(N1CC(Oc2ccccc2)C1)N1N=CC[C@@H]1c1ccccc1` (single isomer, unassigned) [Example 2.4], the EC50 stood at 5 µM.

In turn, `O=C(N1CC(Oc2ccccc2)C1)N1N=CC[C@H]1c1ccccc1` (single isomer, unassigned) [Example 2.5] showed an EC50 of 0.0005 µM.

`CC1(Oc2ccc(F)cc2)CN(C(=O)N2N=CC[C@H]2c2cncc(F)c2)C1` (single isomer, unassigned) [Example 2.31] had an EC50 of 0.0171 µM.

On to `Cc1ncc([C@@H]2CC=NN2C(=O)N2CC(Oc3ccc(F)cc3)C2)cc1F` (single isomer, unassigned) [Example 2.40], for which the midpoint of the response, the EC50, lay at 0.0147 µM.

`CC(c1ccccc1)C1CN(C(=O)N2N=CC[C@H]2c2cc(F)cc(F)c2)C1` (single isomer, unassigned) [Example 2.42, ((S)-5-(3,5-difluorophenyl)-4,5-dihydro-1H-pyrazol-1-yl)(3-((R or S)-1-phenylethyl)azetidin-1-yl)methanone]: it took 0.0186 µM to reach a half-maximal effect (EC50).

The compound `CC(c1ccccc1)C1CN(C(=O)N2N=CC[C@H]2c2cc(F)cc(F)c2)C1` (single isomer, unassigned) [Example 2.43, ((S)-5-(3,5-difluorophenyl)-4,5-dihydro-1H-pyrazol-1-yl)(3-((S or R)-1-phenylethyl)azetidin-1-yl)methanone] registered an EC50 of 0.0467 µM.

In the case of `CC1(Oc2ccccc2)CN(C(=O)N2N=CC[C@H]2c2cc(F)cc(F)c2)C1` [Example 1.1, (S)-(5-(3,5-difluorophenyl)-4,5-dihydro-1H-pyrazol-1-yl)(3-methyl-3-phenoxyazetidin-1-yl)methanone, TFA salt], the EC50 was 0.0025 µM.

With `O=C(N1CC(Oc2ccccc2)C1)N1N=CC[C@@H]1c1cc(F)cc(F)c1` [Example 1.4, (R)-(5-(3,5-difluorophenyl)-4,5-dihydro-1H-pyrazol-1-yl)(3-phenoxyazetidin-1-yl)methanone, TFA salt], the EC50 amounted to 0.6 µM.

`O=C(N1CC(Oc2cccnc2)C1)N1N=CC[C@H]1c1cc(F)cc(F)c1` [Example 1.7, (S)-(5-(3,5-difluorophenyl)-4,5-dihydro-1H-pyrazol-1-yl)(3-(pyridin-3-yloxy)azetidin-1-yl)methanone, TFA salt] displayed an EC50 of 0.0128 µM.

In turn, `O=C(N1CC(Oc2ccncc2)C1)N1N=CC[C@H]1c1cc(F)cc(F)c1` [Example 1.8, (S)-(5-(3,5-difluorophenyl)-4,5-dihydro-1H-pyrazol-1-yl)(3-(pyridin-4-yloxy)azetidin-1-yl)methanone, TFA salt] came in with an EC50 of 0.0087 µM.

In turn, `O=C(N1CC(Cc2ccccc2)C1)N1N=CC[C@H]1c1cc(F)cc(F)c1` [Example 1.14, (S)-(3-benzylazetidin-1-yl)(5-(3,5-difluorophenyl)-4,5-dihydro-1H-pyrazol-1-yl)methanone, TFA salt] came in with an EC50 of 0.0061 µM.

On to `O=C(N1CC(O)C1)N1N=CC[C@H]1c1cc(F)cc(F)c1` [Example 1.15, (S)-(5-(3,5-difluorophenyl)-4,5-dihydro-1H-pyrazol-1-yl)(3-hydroxyazetidin-1-yl)methanone], for which the response was half-maximal at 3.68 µM (EC50).

Compound `O=C(N1CC(OC2CCCC2)C1)N1N=CC[C@H]1c1cc(F)cc(F)c1` [Example 1.17, (S)-(3-(cyclopentyloxy)azetidin-1-yl)(5-(3,5-difluorophenyl)-4,5-dihydro-1H-pyrazol-1-yl)methanone, TFA salt] came in with an EC50 of 0.0115 µM.

Take `O=C(N1CC(c2ncccn2)C1)N1N=CC[C@H]1c1cc(F)cc(F)c1` [Example 1.18, (S)-(5-(3,5-difluorophenyl)-4,5-dihydro-1H-pyrazol-1-yl)(3-(pyrimidin-2-yl)azetidin-1-yl)methanone]: the EC50 was 0.325 µM.

For the compound `O=C(N1CC2(C1)CN(c1ccccn1)C2)N1N=CC[C@H]1c1cc(F)cc(F)c1` [Example 1.19, (S)-(5-(3,5-difluorophenyl)-4,5-dihydro-1H-pyrazol-1-yl)(6-(pyridin-2-yl)-2,6-diazaspiro[3.3]heptan-2-yl)methanone, TFA salt], the concentration for a half-maximal effect (EC50) was 3.45 µM.

In the case of `CS(=O)(=O)N1CCC2(CC1)CN(C(=O)N1N=CC[C@H]1c1cc(F)cc(F)c1)C2` [Example 1.20, (S)-(5-(3,5-difluorophenyl)-4,5-dihydro-1H-pyrazol-1-yl)(7-(methylsulfonyl)-2,7-diazaspiro[3.5]nonan-2-yl)methanone], the EC50 worked out at 1.32 µM.

Regarding `CC(C)OC1CN(C(=O)N2N=CC[C@H]2c2cc(F)cc(F)c2)C1` [Example 1.24, (S)-(5-(3,5-difluorophenyl)-4,5-dihydro-1H-pyrazol-1-yl)(3-isopropoxyazetidin-1-yl)methanone], a half-maximal response (EC50) required 0.0299 µM.

For the origin of these results see patent US20230265094A1, “RIPK1 INHIBITORS AND METHODS OF USE” (Merck Sharp & Dohme LLC, priority 2020, published 2023).
